Assay results: patent publication US20260008784A1 (VASTHERA CO., LTD., priority 2022, published 2026)

Assays:
[1] = system: yeast thioredoxin (Trx)/yeast Trx reductase (TR); assay: Peroxidase activity assay (H2O2 reduction, NADPH oxidation); type: biochemical; conditions: 50 μM test compound, 3 μM yeast Trx, 1.5 μM yeast TR, 250 μM NADPH, 1.2 mM H2O2, 30° C.; NADPH oxidized per minute
Method: Hydrogen peroxide (H2O2)-reducing peroxidase activity of compounds in present invention was performed as follows. Peroxyredoxin activity was measured in reaction mixture (200 μL volume) containing 50 mM HEPES buffer (pH 7.0), 1 mM EDTA, 250 μM NADPH, 3 μM yeast thioredoxin (Trx), 1.5 μM yeast Trx reductase (TR), 50 μM test compound, and 1.2 mM H2O2.
Reaction was initiated by adding H2O2 and the decrease in absorbance at 340 nm was measured using Agilent UV8453 spectrophotometry (Hewlett Packard, USA) at 30° C. for 12 min. Initial reaction rate is the amount of NADPH oxidized per minute calculated from slope of the linear part of curve.
The H2O2-reducing peroxidase activity of the test compounds in present invention was measured in a reaction mixture containing thioredoxin (Trx)/thioredoxin reductase (TR), respectively.

[2] = in vitro
Method: Cytotoxicity tests were performed against vascular endothelial cells, vascular smooth muscle cells and hepatocytes. After treatment with ascending concentrations of each compound, the concentration of test compound corresponding to 50% cell viability (CC50) was measured.

[3] = Measurement of redox potential (DTT redox buffers, HPLC); type: physicochemical; conditions: DTT(Red)/DTT(Ox) redox buffers, 3 h, 30° C., 50% reduction of test compound
Method: A test compound (10 mM) was diluted 20-fold with each redox buffer solution and incubated for 3 h in a 30° C. water bath. Then, compounds were analyzed by HPLC. The area of peaks corresponding to the oxidized and reduced forms of test compound based on specific retention time was calculated and plotted as percent of total peak area against the Nernst equation value (mV) at x-axis. The Nernst equation value corresponding to 50% reduction of test compound was set as the midpoint redox potential value for test compound.
The redox potential values of the test compounds were analyzed based on the potential values established in redox buffer solutions where reduced and oxidized DTT are mixed at various ratios.

[4] = system: Tyr 857 phosphorylation of PDGF receptor-β (PDGFRβ) in HASMC; assay: Immunoblot of PDGF-mediated signaling in PrxII knock-down HASMC; type: cell-based, human; conditions: HASMC depleted of PrxII expression, FIG. 2
Method: Cells were quickly washed in ice-cold phosphate-buffered saline (PBS) and lysed in extraction buffer containing 20 mM Hepes (pH 7.0), 1% Triton X-100, 150 mM NaCl, 10% glycerol, 1 mM EDTA, 2 mM EGTA, and 1 mM DTT, 5 mM Na3VO4, 5 mM NaF, 1 mM AEBSF, aprotinin (5 μg/mL), and leupeptin (5 μg/mL). After cen-trifugation at 12,000×g, the clarified cell extracts were used for immunoblotting. For re-blotting, the immunoblots were retrieved in a solution of 67 mM Tris (pH 6.7), 2% SDS, and 100 mM 2-mercaptoethanol at 60° C. for 30 min to remove antibodies and rinsed three times with a Tris-buffered saline (TBS) solution containing 1% Triton X-100. The retrieved membranes were subjected to new immunoblotting.
In human aortic smooth muscle cell (HASMC) and human pulmonary artery smooth muscle cell (PASMC) in which PrxII was knocked out by transfecting the PrxII siRNA, the ability of test compounds to replace the cellular function of PrxII was evaluated. That is, the efficacy of the new compounds was verified in terms of signaling pathways induced by PDGF that regulates the growth and migration of vascular smooth muscle cells in the aorta and pulmonary artery. Activation of PDGF-induced signaling pathway was analyzed by an immunoblot method using an antibody that specifically recognizes phosphorylation of Tyr 857, which is a major phosphorylation site on PDGF receptor (PDGFRβ).

| Molecule | Peroxidase activity for H2O2 reduction [1] | CC50 [2] | Midpoint redox potential (E m) [3] | Effect on phosphorylation of Tyr 857 on PDGFR [4] |
| --- | --- | --- | --- | --- |
| 6-benzyl-1,4,8-trimethyl-2,3-dithia-6,8-diazabicyclo[3.2.2]nonane-7,9-dione [Compound 25] | 4.51 nmol/min | – | – | – |
| COc1cc(CN2C(=O)C3(C)SSCC2C(=O)N3C)cc(OC)c1OC (stereo not drawn) [Compound 3, 1,8-dimethyl-6-(3,4,5-trimethoxybenzyl)-2,3-dithia-6,8-diazabicyclo[3.2.2]nonane-7,9-dione] | 4.11 nmol/min | 82.6 µM | −296 mV | – |
| CN1C(=O)C2CSSC1(C)C(=O)N2Cc1ccc(F)cc1F (stereo not drawn) [Compound 4] | 3.82 nmol/min | 98 µM | −292.74 mV | – |
| O=C1C2CSSC3(COCCN13)C(=O)N2Cc1ccncc1 (stereo not drawn) [Compound 9, 12-(pyridin-4-ylmethyl)tetrahydro-5H,10H-4,10a-(epiminomethano)[1,4]oxazino[3,4-c][1,2,4]dithiazepin-5,11-dione] | 5.19 nmol/min | – | – | – |
| O=C1C2CSSC3(CCCN13)C(=O)N2Cc1ccncc1 (stereo not drawn) [Compound 11, 11-(pyridin-4-ylmethyl)tetrahydro-5H,7H-4,9a-(epiminomethano)pyrrolo[2,1-c][1,2,4]dithiazepine-5,10-dione] | 4.57 nmol/min | – | – | – |
| CN1C(=O)C2(C)SSCC1C(=O)N2Cc1ncccn1 (stereo not drawn) [Compound 16, 1,6-dimethyl-8-(pyrimidin-2-ylmethyl)-2,3-dithia-6,8-diazabicyclo[3.2.2]nonane-7,9-d ione] | 4.93 nmol/min | – | – | – |
| CN1C(=O)C2(C)SSCC1C(=O)N2Cc1cn(C)cn1 (stereo not drawn) [Compound 17, 1,6-dimethyl-8-((1-methyl-1H-imidazol-4-yl)methyl)-2,3-dithia-6,8-diazabicyclo[3.2.2]nonane-7,9-dione] | 4.80 nmol/min | – | – | – |
| COC(=O)c1ccc(CN2C(=O)C3CSSC2(C)C(=O)N3C)cc1 (stereo not drawn) [Compound 18, Methyl 4-((1,6-dimethyl-7,9-dioxo-2,3-dithia-6,8-diazabicyclo[3.2.2]nonan-8-yl)methyl)benzo ate] | 4.91 nmol/min | – | – | – |
| CN1CCN2C(=O)C3CSSC2(C1)C(=O)N3Cc1ccncc1 (stereo not drawn) [Compound 22] | 7.97 nmol/min | – | – | strongly abolish the phosphorylation |
| CC1SSC2(C)C(=O)N(Cc3ccccc3)C1C(=O)N2C (stereo not drawn) [Compound 24, 6-benzyl-1,4,8-trimethyl-2,3-dithia-6,8-diazabicyclo[3.2.2]nonane-7,9-dione] | 4.26 nmol/min | – | – | – |
